Measured values reported in US12378221B2, “Salts of obicetrapib and processes for their manufacture and intermediates thereof” (NewAmsterdam Pharma B.V., priority 2022, dated 2025).
Where a name gives a salt, the structure may show the parent alone.

Key:
[1] = Physical stability at 70° C./75% relative humidity, by XRPD; assay type: physicochemical
From the text: FIG. 6 is a plot of x-ray powder diffraction pattern taken of crystalline obicetrapib hemicalcium, and FIG. 7 is a plot of x-ray powder diffraction patterns taken of crystalline obicetrapib hemicalcium under stress conditions. In FIG. 7, there are four diffraction patterns shown based on stability study set forth in Example 27. Pattern 1 is an x-ray powder diffraction pattern of a sample of amorphous obicetrapib hemicalcium. Pattern 2 is the x-ray powder diffraction pattern of a sample of crystalline obicetrapib hemicalcium. In pattern 3, the sample of crystalline obicetrapib hemicalcium was exposed to 70° C. at 75% relative humidity for one day. […] was taken before the sample was placed on stability.
XRPD was performed with Panalytical X'Pert^3 Powder diffractometer using an incident beam of Cu radiation produced using an Empyran tube, fine focused source, on a silicon zero-background holder. […] Approximately 5 to 10 mg of sample was placed on a silicon zero-background holder and flattened manually using an aluminum spatula to minimize difference in the overall sample height. The holder was then loaded on the instrument for analysis. The XRPD parameters used are listed in Table 10.
Stability study was conducted on crystalline and amorphous forms of obicetrapib at 70° C./75% relative humidity (RH). The solids were placed into a 4.0 ml glass vial without caps (open condition) and stored at 70° C./75% RH. […] The solids were analyzed by XRPD for physical stability and by HPLC for chemical purity. The sample collected at each time point was dissolved in methanol before HPLC analysis. In order to minimize the effect of potential analyte adsorption on the filter, the initial 0.5 mL of supernatant passing through the filter was discarded prior to collecting sample for HPLC analysis. Purity for each sample was determined based on peak area percent and compared to the sample at T=0.

[2] = Moisture uptake / hygroscopicity; assay type: physicochemical
From the text: When exposed to relative humidities approaching 90%, moisture uptake has been measured to be typically less than about 5% for example. […] Other drawbacks commonly associated with manufacturing and using amorphous materials are similarly not present. For example, amorphous materials are often challenging to make chemically pure.

[3] = Loss of crystallinity on drying, by XRPD (FIG. 18); assay type: physicochemical; settings: 48 hours at 55° C. at a pressure of 2 mbar
Procedure: Upon stress, crystalline obicetrapib HCl loses its crystallinity. In FIG. 18, pattern 2 reflects crystalline obicetrapib HCl subject to a mild drying treatment whereby surface solvent was removed and it can be seen that this compound is crystalline. By comparison, the sample whose x-ray powder diffraction was measured in pattern 1 was subject to a stronger drying treatment at 48 hours at 55° C. at a pressure of 2 mbar. […] The amorphous pattern, therefore, represents HCl obicetrapib which is not crystalline obicetrapib. It may be obicetrapib, but is believed to have HCl associated with the obicetrapib as a solvate and thus is HCl obicetrapib, but with a lower chloride content than typically found in the ranges found for crystalline obicetrapib HCl. In some embodiments, that chloride content is less than 0.1% by weight such as between about 0.01% and 0.1% by weight.
Diffraction patterns were measured using a Thermo Fisher Scientific ARL Equinox 1000 powder diffractometer. The diffractometer is equipped with a copper source and a germanium (111) monochromator providing monochromatic Cu Kα1 radiation, and a position sensitive gas-ionization detector.
Samples were measured in reflection mode using an A1 sample holder without any further preparation (i.e., grinding). […]

[4] = target: T1, Cholesterol Ester Transfer Protein (CETP) (Homo sapiens, UniProt P11597); settings: repeated daily dosages (once a day) as low as 2.5 mg; cited from earlier work
T1 construct: CETP is a plasma protein secreted primarily by liver and adipose tissue; host or cells: endogenous plasma CETP of dosed clinical-study subjects
T1 sequence (P11597 18-493): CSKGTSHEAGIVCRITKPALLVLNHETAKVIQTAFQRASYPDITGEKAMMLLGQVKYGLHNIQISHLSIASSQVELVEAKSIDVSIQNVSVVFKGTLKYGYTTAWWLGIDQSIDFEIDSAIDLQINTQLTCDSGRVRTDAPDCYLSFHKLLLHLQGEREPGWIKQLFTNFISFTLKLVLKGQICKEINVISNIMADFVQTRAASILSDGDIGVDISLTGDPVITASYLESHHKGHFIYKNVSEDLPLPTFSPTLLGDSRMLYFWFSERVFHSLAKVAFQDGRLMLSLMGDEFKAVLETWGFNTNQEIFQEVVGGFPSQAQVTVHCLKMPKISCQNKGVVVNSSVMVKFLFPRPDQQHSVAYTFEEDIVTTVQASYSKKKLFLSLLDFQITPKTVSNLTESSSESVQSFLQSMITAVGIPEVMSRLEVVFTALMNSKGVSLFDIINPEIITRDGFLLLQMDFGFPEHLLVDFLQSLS

[5] = clinical studies; cited from earlier work
[6] = Solubility in water at 20° C.; assay type: physicochemical
From the text: Solubility is especially challenging with obicetrapib. […] It would be desirable to have a solid form of obicetrapib that would deliver a larger amount of obicetrapib.

With `CCOC(=O)N1c2ccc(C(F)(F)F)cc2[C@@H](N(Cc2cc(C(F)(F)F)cc(C(F)(F)F)c2)c2ncc(OCCCC(=O)O)cn2)C[C@H]1CC` [Amorphous obicetrapib hemicalcium] the “physical stability of solid form (XRPD)” value ([1]; 7 days, open vial) was “remained amorphous” and the “physical stability of solid form (XRPD)” value ([1]; 14 days) was “remained amorphous”.
For `CCOC(=O)N1c2ccc(C(F)(F)F)cc2[C@@H](N(Cc2cc(C(F)(F)F)cc(C(F)(F)F)c2)c2ncc(OCCCC(=O)[O-])cn2)C[C@H]1CC.CCOC(=O)N1c2ccc(C(F)(F)F)cc2[C@@H](N(Cc2cc(C(F)(F)F)cc(C(F)(F)F)c2)c2ncc(OCCCC(=O)[O-])cn2)C[C@H]1CC.[Ca+2]` [Crystalline obicetrapib hemicalcium, reference compound], the “physical stability of solid form (XRPD)” value ([1]; 7 days, open vial) was “the result remains the same” and the “physical stability of solid form (XRPD)” value ([1]; one day, open vial) was “near total loss of crystallinity”.
For `CCOC(=O)N1c2ccc(C(F)(F)F)cc2[C@@H](N(Cc2cc(C(F)(F)F)cc(C(F)(F)F)c2)c2ncc(OCCCC(=O)O)cn2)C[C@H]1CC` [crystalline obicetrapib HCl, (2R,4S)-4-{[3,5-bis(trifluoromethyl)benzyl]-[5-(3-carboxypropoxy)pyrimidin-2-yl]amino}-2-ethyl-6-trifluoromethyl-3,4-dihydro-2H-quinoline-1-carboxylic acid ethyl ester hydrochloride], the hygroscopicity [2] was “hygroscopic” and the “solid form after drying (XRPD)” value [3] was “changed the material from crystalline to amorphous”.
For `CCOC(=O)N1c2ccc(C(F)(F)F)cc2[C@@H](N(Cc2cc(C(F)(F)F)cc(C(F)(F)F)c2)c2ncc(OCCCC(=O)O)cn2)C[C@H]1CC` [obicetrapib, (2R,4S)-4-{[3,5 bis(trifluoromethyl)benzyl]-[5-(3-carboxypropoxy)pyrimidin-2-yl]amino}-2-ethyl-6-trifluoromethyl-3,4-dihydro-2H-quinoline-1-carboxylic acid ethyl ester], the CETP inhibition [4] is listed as “near complete CETP inhibition”, the serious side effects [5] is listed as “does not lead to serious side effects” and the solubility in water [6] is listed as “less than 0.1 mg/mL”.
